Assay [1] has as its system DV-90. Briefly: Induction of cell cycle arrest in human DV-90 cells assessed as accumulation of cells at G0/G1 phase at 1 uM for 24 hrs by Click-iT EdU Alexa Fluor 647 flow cytometric assay kit analysis (reference value: 44%). The format is functional.
Assay [2] concerns A549. Briefly: Induction of apoptosis in human A549 cells assessed as necrotic cells at 0.5 uM for 24 hrs by annexin V-PI staining based flow cytometric analysis (reference value: 1.3%). The format is functional.
In assay [3] the test system is A549. The experiment in a line: Induction of apoptosis in human A549 cells assessed as late apoptotic cells at 2.5 uM for 24 hrs by annexin V-PI staining based flow cytometric analysis (reference value: 2.3%). The format is functional.
Assay [4] concerns A549. Briefly: Induction of apoptosis in human A549 cells assessed as necrotic cells at 2.5 uM for 24 hrs by annexin V-PI staining based flow cytometric analysis (reference value: 1.3%). The format is functional.
Assay [5] has as its system NCI-H1373. Briefly: Induction of apoptosis in human NCI-H1373 cells assessed as necrotic cells at 0.5 uM for 24 hrs by annexin V-PI staining based flow cytometric analysis (reference value: 5.5%). The format is functional.
The test system of assay [6] is NCI-H1373. Briefly: Induction of apoptosis in human NCI-H1373 cells assessed as late apoptotic cells at 2.5 uM for 24 hrs by annexin V-PI staining based flow cytometric analysis (reference value: 16.2%). The assay is classed as functional.
The test system of assay [7] is LCLC-97TM1. Briefly: Downregulation of c-MYC mRNA expression level in human LCLC-97TM1 cells at 0.1 to 1 uM for 24 hrs by qRT-PCR analysis. The format is functional, cell-based. The following applies: dose 0.1-1 µM.
For another assay, the system named is SK-LU-1. The experiment in a line: Downregulation of c-MYC mRNA expression level in human SK-LU-1 cells at 0.1 to 1 uM for 24 hrs by qRT-PCR analysis. The note with it: dose 0.1-1 µM. The format is functional, cell-based.
Assay [8] deals with NCI-H441. Briefly: Downregulation of c-MYC mRNA expression level in human NCI-H441 cells at 0.1 to 1 uM for 24 hrs by qRT-PCR analysis. The assay is classed as functional, cell-based. The following applies: dose 0.1-1 µM.
The test system of assay [9] is NCI-H23. Briefly: Downregulation of c-MYC mRNA expression level in human NCI-H23 cells at 0.1 to 1 uM for 24 hrs by qRT-PCR analysis. The assay is classed as functional, cell-based. The note with it: dose 0.1-1 µM.
Assay [10] relates to NCI-H1373. The experiment in a line: Downregulation of c-MYC level SCID mouse tumor tissue xenografted with human NCI-H1373 cells at 50 mg/kg, ip for 24 hrs by Western blot analysis. The assay is classed as functional, organism-based. The note with it: Neoplasm.
Assay [11] concerns LCLC-97TM1. Briefly: Downregulation of XIAP mRNA expression level in human LCLC-97TM1 cells at 0.1 to 1 uM for 24 hrs by qRT-PCR analysis. The assay is classed as functional, cell-based. The following applies: dose 0.1-1 µM.
Assay [12] has as its system NCI-H441. Briefly: Downregulation of XIAP mRNA expression level in human NCI-H441 cells at 0.1 to 1 uM for 24 hrs by qRT-PCR analysis. The assay is classed as functional, cell-based. The note with it: dose 0.1-1 µM.
The subject of assay [13] is NCI-H23. Briefly: Downregulation of XIAP mRNA expression level in human NCI-H23 cells at 0.1 to 1 uM for 24 hrs by qRT-PCR analysis. The format is functional, cell-based. The note with it: dose 0.1-1 µM.
In assay [14] the test system is NCI-H460. Briefly: Downregulation of XIAP mRNA expression level in human NCI-H460 cells at 0.1 to 1 uM for 24 hrs by qRT-PCR analysis. The format is functional, cell-based. The following applies: dose 0.1-1 µM.
The test system of the next assay is NCI-H2347. Briefly: Downregulation of XIAP mRNA expression level in human NCI-H2347 cells at 0.1 to 1 uM for 24 hrs by qRT-PCR analysis. The assay is classed as functional, cell-based. The note with it: dose 0.1-1 µM.
For assay [15], the system named is NCI-H1792. Briefly: Downregulation of FLIP mRNA expression level in human NCI-H1792 cells at 0.1 to 1 uM for 24 hrs by qRT-PCR analysis. The format is functional, cell-based. The note with it: dose 0.1-1 µM.
For assay [16], the system named is NCI-H23. Briefly: Downregulation of FLIP mRNA expression level in human NCI-H23 cells at 0.1 to 1 uM for 24 hrs by qRT-PCR analysis. The assay is classed as functional, cell-based. The following applies: dose 0.1-1 µM.
A further assay relates to NCI-H358. The experiment in a line: Downregulation of FLIP mRNA expression level in human NCI-H358 cells at 0.1 to 1 uM for 24 hrs by qRT-PCR analysis. The note with it: dose 0.1-1 µM. The format is functional, cell-based.
In assay [17] the test system is LCLC-97TM1. The experiment in a line: Downregulation of XIAP protein expression level in human LCLC-97TM1 cells at 1 uM for 24 hrs by […] analysis. The assay is classed as functional, cell-based.
Assay [18] relates to NCI-H1792. The experiment in a line: Downregulation of XIAP protein expression level in human NCI-H1792 cells at 1 uM for 24 hrs by […] analysis. The format is functional, cell-based.
The test system of assay [19] is NCI-H441. Briefly: Downregulation of XIAP protein expression level in human NCI-H441 cells at 1 uM for 24 hrs by […] analysis. The format is functional, cell-based.
The test system of assay [20] is NCI-H23. The experiment in a line: Downregulation of XIAP protein expression level in human NCI-H23 cells at 1 uM for 24 hrs by […] analysis. The assay is classed as functional, cell-based.
A further assay deals with NCI-H2030. The experiment in a line: Induction of TRAIL dependent apoptosis in human NCI-H2030 cells by annexin V-PI staining based flow cytometric analysis. The format is functional, cell-based.
Assay [21] has as its system A549. The experiment in a line: Induction of TRAIL dependent apoptosis in human A549 cells by annexin V-PI staining based flow cytometric analysis. The assay is classed as functional, cell-based.
Assay [22] has as its system NCI-H1373. The experiment in a line: Induction of TRAIL dependent apoptosis in human NCI-H1373 cells assessed as necrotic cells at 1 uM by annexin V-PI staining based flow cytometric analysis (reference value: 3.6%). The format is functional.
Assay [23] deals with NCI-H1373. Briefly: Induction of TRAIL dependent apoptosis in human NCI-H1373 cells assessed as viable cells at 1 uM in presence of […] by annexin V-PI staining based flow cytometric analysis (reference value: 87.6%). The format is functional. The note with it: read-out: Activity.
The test system of assay [24] is DV-90. Briefly: Induction of cell cycle arrest in human DV-90 cells assessed as accumulation of cells at G0/G1 phase at 0.25 uM for 24 hrs by Click-iT EdU Alexa Fluor 647 flow cytometric assay kit analysis (reference value: 45%). The format is functional.
Assay [25] deals with NCI-H460. Briefly: Induction of cell cycle arrest in human NCI-H460 cells assessed as accumulation of cells at S phase at 0.1 uM for 24 hrs by Click-iT EdU Alexa Fluor 647 flow cytometric assay kit analysis (reference value: 54%). The assay is classed as functional.
In assay [26] the test system is NCI-H460. The experiment in a line: Induction of cell cycle arrest in human NCI-H460 cells assessed as accumulation of cells at G0/G1 phase at 0.25 uM for 24 hrs by Click-iT EdU Alexa Fluor 647 flow cytometric assay kit analysis (reference value: 45%). The assay is classed as functional.
For assay [27], the system named is NCI-H460. Briefly: Induction of cell cycle arrest in human NCI-H460 cells assessed as accumulation of cells at S phase at 0.25 uM for 24 hrs by Click-iT EdU Alexa Fluor 647 flow cytometric assay kit analysis (reference value: 54%). The format is functional.
The subject of assay [28] is DV-90. Briefly: Induction of cell cycle arrest in human DV-90 cells assessed as accumulation of cells at G2/M phase at 0.1 uM for 24 hrs by Click-iT EdU Alexa Fluor 647 flow cytometric assay kit analysis (reference value: 21%). The format is functional.
Assay [29] concerns NCI-H1373. Briefly: Induction of apoptosis in human NCI-H1373 cells assessed as early apoptotic cells at 0.5 uM for 24 hrs by annexin V-PI staining based flow cytometric analysis (reference value: 1.7%). The assay is classed as functional.
Assay [30] has as its system NCI-H1373. The experiment in a line: Induction of apoptosis in human NCI-H1373 cells assessed as necrotic cells at 2.5 uM for 24 hrs by annexin V-PI staining based flow cytometric analysis (reference value: 4.4%). The assay is classed as functional.
Assay [31] concerns NCI-H460. The experiment in a line: Induction of apoptosis in human NCI-H460 cells assessed as necrotic cells at 0.5 uM for 24 hrs by annexin V-PI staining based flow cytometric analysis (reference value: 3.2%). The assay is classed as functional.

The source made the active and inactive calls. The calls are words filed in the database; no cut-off is given here.

On to `Cc1sc2c(c1C)C(c1ccc(Cl)cc1)=N[C@@H](CC(=O)OC(C)(C)C)c1nnc(C)n1-2`, for which the Activity came out at 56% with DV-90 [1]; 1.2% with A549 [2]; 1.8% in the assay with A549 [3]; 0.9% in the assay on A549 [4]; 13% in the assay on NCI-H1373 [5]; 21.9% with NCI-H1373 [6]. Moreover, the Activity in the assay on NCI-H1373 [22] came to 19.1%. The outcome in the assay on LCLC-97TM1 [7], with SK-LU-1, in the assay with NCI-H441 [8], with NCI-H23 [9], in the assay on NCI-H1373 [10] and with LCLC-97TM1 [11] was Active. In addition, the result with NCI-H441 [12], in the assay on NCI-H23 [13], with NCI-H460 [14], in the assay on NCI-H2347, in the assay on NCI-H1792 [15] and in the assay on NCI-H23 [16] was Active. Besides, the outcome in the assay with NCI-H358, in the assay on LCLC-97TM1 [17], with NCI-H1792 [18], with NCI-H441 [19], with NCI-H23 [20] and in the assay on NCI-H2030 was Active. In the assay on A549 [21], the result was Active. Moreover, the viability at 1 µM in the assay with NCI-H1373 [23] stood at 17.8%.
As to `CCNC(=O)C[C@@H]1N=C(c2ccc(Cl)cc2)c2cc(OC)ccc2-n2c(C)nnc21` [MOLIBRESIB], the Activity with DV-90 [24] is on record as 49%; in the assay on NCI-H460 [25], 53%; in the assay on NCI-H460 [26], 43%; with NCI-H460 [27], 56%.
Take `Cc1sc2c(c1C)C(c1ccc(Cl)cc1)=N[C@@H](CC(=O)Nc1ccc(O)cc1)c1nnc(C)n1-2` [BIRABRESIB]: the Activity with DV-90 [28] was 29%; in the assay on NCI-H1373 [29] it was 2.6%; in the assay on NCI-H1373 [30], 21.4%; in the assay with NCI-H460 [31] it was 4.7%.

For the origin of these results see ChEMBL document CHEMBL5712891, “Inhibition of BET bromodomain-dependent XIAP and FLIP expression sensitizes KRAS-mutated NSCLC to pro-apoptotic agents” (Cell Death Dis, 2016).
